Measurements: PubChem BioAssay AID248 (DTP/NCI, 2004)
Where “and” joins values, the source holds several entries; their conditions need not be identical. Identical values can stand only once. Inconclusive results and toxic doses are left out. Cut-off read from the data, not from the text of the source: active = T/C of 150% or more; inactive = T/C below 125%.

Tested on: L1210 leukemia ip in BDF1 mice, survival T/C
Assay: NCI In Vivo Anticancer Drug Screen. Data for tumor model L1210 Leukemia (intraperitoneal) in B6D2F1 (BDF1) mice
Settings: endpoint: mean survival time, higher = longer survival
In short: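 Transplanted-tumor mice were given test agent; controls received vehicle only. Survival readings from the two groups were divided (treated over control).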

[1] = dose: 100.0 mg/kg/injection, schedule: Q01DX009 (ip), vehicle: saline with Tween-80
[2] = dose: 100.0 mg/kg/injection, schedule: Q04DX003 (ip), vehicle: saline with Tween-80
[3] = dose: 200.0 mg/kg/injection, schedule: Q01DX009 (ip), vehicle: saline with Tween-80
[4] = dose: 200.0 mg/kg/injection, schedule: Q04DX003 (ip), vehicle: saline with Tween-80
[5] = dose: 400.0 mg/kg/injection, schedule: Q01DX009 (ip), vehicle: saline with Tween-80
[6] = dose: 400.0 mg/kg/injection, schedule: Q04DX003 (ip), vehicle: saline with Tween-80
[7] = dose: 75.0 mg/kg/injection, schedule: Q01DX001 (ip), vehicle: other
[8] = dose: 150.0 mg/kg/injection, schedule: Q01DX001 (ip), vehicle: other
[9] = dose: 12.5 mg/kg/injection, schedule: Q01DX009 (ip), vehicle: saline
[10] = dose: 25.0 mg/kg/injection, schedule: Q01DX009 (ip), vehicle: saline
[11] = dose: 50.0 mg/kg/injection, schedule: Q01DX009 (ip), vehicle: saline
[12] = dose: 50.0 mg/kg/injection, schedule: Q01DX001 (ip), vehicle: saline
[13] = dose: 100.0 mg/kg/injection, schedule: Q01DX001 (ip), vehicle: saline
[14] = dose: 100.0 mg/kg/injection, schedule: Q04DX002 (ip), vehicle: saline with Tween-80
[15] = dose: 200.0 mg/kg/injection, schedule: Q04DX002 (ip), vehicle: saline with Tween-80
[16] = dose: 400.0 mg/kg/injection, schedule: Q04DX002 (ip), vehicle: saline with Tween-80
[17] = dose: 100.0 mg/kg/injection, schedule: Q04DX003 (ip), vehicle: Klucel (hydroxypropylcellulose) (HPC)
[18] = dose: 200.0 mg/kg/injection, schedule: Q04DX003 (ip), vehicle: Klucel (hydroxypropylcellulose) (HPC)
[19] = dose: 400.0 mg/kg/injection, schedule: Q04DX003 (ip), vehicle: Klucel (hydroxypropylcellulose) (HPC)
[20] = dose: 100.0 mg/kg/injection, schedule: Q01DX009 (ip), vehicle: Klucel (hydroxypropylcellulose) (HPC)
[21] = dose: 200.0 mg/kg/injection, schedule: Q01DX009 (ip), vehicle: Klucel (hydroxypropylcellulose) (HPC)
[22] = dose: 200.0 mg/kg/injection, schedule: Q01DX001 (ip), vehicle: saline
[23] = dose: 400.0 mg/kg/injection, schedule: Q01DX009 (ip), vehicle: Klucel (hydroxypropylcellulose) (HPC)
[24] = dose: 400.0 mg/kg/injection, schedule: Q01DX001 (ip), vehicle: saline

Measured: T/C

CCCCCCCCCCCCOc1ccc(C)cc1
inactive: [1] 97 % of control | [2] 88 % of control | [3] 93 % of control | [4] 88 % of control | [5] 97 % of control | [6] 93 % of control

Ic1ccccc1CNCCc1ccccc1
inactive: [7] 93 % of control | [8] 96 % of control | dose: 300.0 mg/kg/injection, schedule: Q01DX001 (ip), vehicle: other 96 % of control

O=C1NC2CC=CCC12 (centres undefined)
inactive: [1] 91 % of control | dose: 100.0 mg/kg/injection, schedule: Q04DX003 (ip), vehicle: saline 101 % of control | [3] 89 % of control | dose: 200.0 mg/kg/injection, schedule: Q04DX003 (ip), vehicle: saline 101 % of control | [5] 89 % of control | dose: 400.0 mg/kg/injection, schedule: Q04DX003 (ip), vehicle: saline 94 % of control

CCN(CC)CC(=O)NCC(CCCN(C)C)(CCCN(C)C)c1cccc2ccccc12
inactive: [9] 96 % of control | [10] 91 % of control | dose: 25.0 mg/kg/injection, schedule: Q04DX002 (ip), vehicle: saline 93 % of control | [11] 86 % of control | dose: 50.0 mg/kg/injection, schedule: Q04DX002 (ip), vehicle: saline 100 % of control

C=C1C(=O)OC2CCC(O)C12 (centres undefined)
inactive: dose: 25.0 mg/kg/injection, schedule: Q01DX001 (ip), vehicle: saline 94 % of control | [12] 108 % of control | [13] 105 % of control

O=C1c2ccccc2C(=O)N1CNc1ccccc1Cl
inactive: [1] 93 % of control | [14] 98 % of control | [3] 93 % of control | [15] 91 % of control | [5] 100 % of control | [16] 88 % of control

CCCCCCCCCCCCCCCCOc1ccc(C(=O)O)cc1NC(=O)CC(C)=O
inactive: [17] 92 % of control | [18] 95 % of control | [19] 92 % of control

COc1ccc(CC(=O)NCCc2ccccc2)cc1OC
inactive: dose: 12.5 mg/kg/injection, schedule: Q01DX009 (ip), vehicle: saline with Tween-80 92 % of control | dose: 25.0 mg/kg/injection, schedule: Q01DX009 (ip), vehicle: saline with Tween-80 92 % of control | dose: 50.0 mg/kg/injection, schedule: Q01DX009 (ip), vehicle: saline with Tween-80 103 % of control and 92 % of control | [1] 105 % of control

O=C(O)c1c(F)c(F)c(Oc2c(F)c(F)c(F)c(Oc3c(F)c(F)c(C(=O)O)c(F)c3F)c2F)c(F)c1F
inactive: [20] 107 % of control | [17] 100 % of control | [21] 98 % of control | [18] 97 % of control

c1ccc([P+](C2=NNCC2)(c2ccccc2)c2ccccc2)cc1
inactive: dose: 6.25 mg/kg/injection, schedule: Q01DX009 (ip), vehicle: Klucel (hydroxypropylcellulose) (HPC) 105 % of control | dose: 12.5 mg/kg/injection, schedule: Q01DX009 (ip), vehicle: Klucel (hydroxypropylcellulose) (HPC) 118 % of control | dose: 25.0 mg/kg/injection, schedule: Q01DX009 (ip), vehicle: Klucel (hydroxypropylcellulose) (HPC) 105 % of control and 109 % of control

CCC1OC2(C)CCCC1O2 (centres undefined)
inactive: dose: 25.0 mg/kg/injection, schedule: Q01DX001 (ip), vehicle: saline sonified 111 % of control | dose: 50.0 mg/kg/injection, schedule: Q01DX001 (ip), vehicle: saline sonified 101 % of control | dose: 100.0 mg/kg/injection, schedule: Q01DX001 (ip), vehicle: saline sonified 122 % of control

C1CC2OC2CCC2OC12 (centres undefined)
inactive: dose: 100.0 mg/kg/injection, schedule: Q01DX001 (ip), vehicle: other 95 % of control | dose: 200.0 mg/kg/injection, schedule: Q01DX001 (ip), vehicle: other 106 % of control | dose: 400.0 mg/kg/injection, schedule: Q01DX001 (ip), vehicle: other 101 % of control

O=C1CCCC2C1C1(O)CCC2(O)c2cccc(O)c21 (centres undefined)
inactive: dose: 6.25 mg/kg/injection, schedule: Q01DX009 (ip), vehicle: saline 109 % of control | [9] 102 % of control | [10] 101 % of control | [11] 98 % of control | [13] 96 % of control | dose: 100.0 mg/kg/injection, schedule: Q01DX009 (ip), vehicle: saline 91 % of control | [22] 103 % of control

O=C1OC2C(Br)CC(Br)CC2C=C1c1ccc([N+](=O)[O-])cc1 (centres undefined)
inactive: [14] 90 % of control | [15] 90 % of control | [16] 93 % of control

CCCCOP(=O)(CSCC)OCCCC
inactive: [20] 98 % of control | [21] 90 % of control | [23] 93 % of control

C=CCNc1nnnn1CC=C
inactive: [2] 102 % of control | [4] 102 % of control | [6] 96 % of control

CC(=O)Nc1c(Cl)cc(Cl)cc1Cl
inactive: dose: 100.0 mg/kg/injection, schedule: Q01DX001 (ip), vehicle: saline with Tween-80 109 % of control | dose: 200.0 mg/kg/injection, schedule: Q01DX001 (ip), vehicle: saline with Tween-80 93 % of control | dose: 400.0 mg/kg/injection, schedule: Q01DX001 (ip), vehicle: saline with Tween-80 95 % of control

CN(C)c1ccc(C=Nc2ccc([N+](=O)[O-])cc2O)cc1
inactive: [13] 97 % of control | [22] 95 % of control | [24] 92 % of control

CCC(C)C(C#N)(CCN(C)C)Cc1cccc2ccccc12 (centres undefined)
inactive: dose: 25.0 mg/kg/injection, schedule: Q04DX003 (ip), vehicle: Klucel (hydroxypropylcellulose) (HPC) 97 % of control | dose: 50.0 mg/kg/injection, schedule: Q04DX003 (ip), vehicle: Klucel (hydroxypropylcellulose) (HPC) 92 % of control | [20] 100 % of control | [17] 103 % of control

O=C(NCCCl)NC1CC1c1ccccc1 (centres undefined)
inactive: [7] 97 % of control | [8] 103 % of control

O=c1cc(-c2ccccc2)nc(Nc2nc3ccc([N+](=O)[O-])cc3[nH]2)[nH]1
inactive: [20] 95 % of control | [17] 100 % of control | [21] 95 % of control | [18] 103 % of control | [23] 87 % of control | [19] 106 % of control

CCCCCC[C@@H](O)C/C=C\CCCCCCCC(=O)OC
inactive: [13] 97 % of control | [22] 97 % of control | [24] 103 % of control

Nc1ccc2[nH]ncc2c1
inactive: [2] 102 % of control | [4] 102 % of control | [6] 110 % of control

COc1ccc(/C=C2\N=C(c3ccccc3)OC2=O)c(Cl)c1OC
inactive: [12] 97 % of control | [13] 97 % of control | [22] 100 % of control | [24] 94 % of control

NC(CSS(=O)(=O)O)=NCCc1c[nH]c(=S)[nH]1
inactive: dose: 12.5 mg/kg/injection, schedule: Q04DX002 (ip), vehicle: Klucel (hydroxypropylcellulose) (HPC) 107 % of control | dose: 25.0 mg/kg/injection, schedule: Q04DX002 (ip), vehicle: Klucel (hydroxypropylcellulose) (HPC) 91 % of control

CC[N+](CC)(CCO)CCCCCCCCCC[N+](CC)(CC)CCO
inactive: dose: 0.15 mg/kg/injection, schedule: Q04DX003 (ip), vehicle: saline 100 % of control | dose: 0.3 mg/kg/injection, schedule: Q04DX003 (ip), vehicle: saline 103 % of control | dose: 0.6 mg/kg/injection, schedule: Q04DX003 (ip), vehicle: saline 105 % of control

O=S(=O)(O)Nc1cccc(Cl)c1
inactive: [14] 100 % of control | [15] 111 % of control | [16] 88 % of control

Cn1c(=O)c2c(ncn2CN2CCOCC2)n(C)c1=O
inactive: dose: 75.0 mg/kg/injection, schedule: Q01DX001 (ip), vehicle: saline 100 % of control | dose: 150.0 mg/kg/injection, schedule: Q01DX001 (ip), vehicle: saline 100 % of control

Cc1ccc([N+](=O)[O-])cc1CN(CCO)CCO
inactive: [13] 101 % of control | [22] 95 % of control | [24] 98 % of control

Cc1ccc(S(=O)(=O)O/N=C(/C#N)c2ccccc2)cc1
inactive: dose: 100.0 mg/kg/injection, schedule: Q04DX002 (ip), vehicle: Klucel (hydroxypropylcellulose) (HPC) 111 % of control | dose: 200.0 mg/kg/injection, schedule: Q04DX002 (ip), vehicle: Klucel (hydroxypropylcellulose) (HPC) 97 % of control | dose: 400.0 mg/kg/injection, schedule: Q04DX002 (ip), vehicle: Klucel (hydroxypropylcellulose) (HPC) 101 % of control
